Our source for the IC50 values is patent US9440957B2, “Compounds and compositions for modulating EGFR Activity” (Novartis AG, priority 2012, dated 2016).

Test [1] concerns the target T1, EGFR(L858R/T790M) (Homo sapiens, UniProt P00533, L858R/T790M).
T1 construct: purchased from Carna (GST-a.a. 669-1210)
In words: EGFR biochemical assay (HTRF), IC50 determinations. Summed up: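 HTRF kinase reaction with biotin-TK peptide at room temperature, quenched with EDTA at 60 min and detected with PT66K/SAXL after 1 h. Without preincubation, enzyme starts the reaction with compound, ATP and peptide present. With preincubation, compound, enzyme and peptide sit at room temperature for a set time before ATP is added.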

Test [2] deals with human EGFR WT (NIH/3T3 cells, EGF-induced) (Homo sapiens, UniProt P00533). The experiment in a line: EGFR target modulation in engineered NIH/3T3 cell lines (phospho-EGFR Y1068 AlphaLISA), EGFR WT. The class given is cell-based. The following applies: engineered NIH/3T3 cells, read-out: NIH3T3 IC50 (μM) EGFR (WT). The essentials:
(§1)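 Engineered NIH/3T3 cells were plated overnight, then exposed to a 12-point 1:3 compound series (from a 10 μM stock) for 3 hours at 37 °C. WT-expressing cells alone were stimulated with 50 ng/ml EGF for 5 minutes before lysis. IC50s came from non-linear fits of AlphaLISA signal.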
Background: Alpha assays give light when donor and acceptor beads are brought close together.

Test [3] deals with human EGFR L858R (NIH/3T3 cells) (Homo sapiens, UniProt P00533, L858R). The experiment in a line: EGFR target modulation in engineered NIH/3T3 cell lines (phospho-EGFR Y1068 AlphaLISA), EGFR L858R. The format is cell-based. The following applies: engineered NIH/3T3 cells, read-out: NIH3T3 IC50 (μM) EGFR (L858R). Summed up: as §1
Test [4] addresses human EGFR L858R/T790M (NIH/3T3 cells) (Homo sapiens, UniProt P00533, L858R/T790M). In words: EGFR target modulation in engineered NIH/3T3 cell lines (phospho-EGFR Y1068 AlphaLISA), EGFR L858R/T790M. The following applies: engineered NIH/3T3 cells, read-out: NIH3T3 IC50 (μM) EGFR (L858R/T790M). The class given is cell-based. The essentials: as §1
Where [5] appears, read: EGFR (L858R/T790M) with 90 min pre-incubation, read-out: IC50 (μM) Column B.
Setting [6] is: EGFR (L858R/T790M) with no pre-incubation, read-out: IC50 (μM) Column A.

Where two headings read alike, the source gives them in different places.

human EGFR WT (NIH/3T3 cells, EGF-induced), sequence (P00533 25-1210): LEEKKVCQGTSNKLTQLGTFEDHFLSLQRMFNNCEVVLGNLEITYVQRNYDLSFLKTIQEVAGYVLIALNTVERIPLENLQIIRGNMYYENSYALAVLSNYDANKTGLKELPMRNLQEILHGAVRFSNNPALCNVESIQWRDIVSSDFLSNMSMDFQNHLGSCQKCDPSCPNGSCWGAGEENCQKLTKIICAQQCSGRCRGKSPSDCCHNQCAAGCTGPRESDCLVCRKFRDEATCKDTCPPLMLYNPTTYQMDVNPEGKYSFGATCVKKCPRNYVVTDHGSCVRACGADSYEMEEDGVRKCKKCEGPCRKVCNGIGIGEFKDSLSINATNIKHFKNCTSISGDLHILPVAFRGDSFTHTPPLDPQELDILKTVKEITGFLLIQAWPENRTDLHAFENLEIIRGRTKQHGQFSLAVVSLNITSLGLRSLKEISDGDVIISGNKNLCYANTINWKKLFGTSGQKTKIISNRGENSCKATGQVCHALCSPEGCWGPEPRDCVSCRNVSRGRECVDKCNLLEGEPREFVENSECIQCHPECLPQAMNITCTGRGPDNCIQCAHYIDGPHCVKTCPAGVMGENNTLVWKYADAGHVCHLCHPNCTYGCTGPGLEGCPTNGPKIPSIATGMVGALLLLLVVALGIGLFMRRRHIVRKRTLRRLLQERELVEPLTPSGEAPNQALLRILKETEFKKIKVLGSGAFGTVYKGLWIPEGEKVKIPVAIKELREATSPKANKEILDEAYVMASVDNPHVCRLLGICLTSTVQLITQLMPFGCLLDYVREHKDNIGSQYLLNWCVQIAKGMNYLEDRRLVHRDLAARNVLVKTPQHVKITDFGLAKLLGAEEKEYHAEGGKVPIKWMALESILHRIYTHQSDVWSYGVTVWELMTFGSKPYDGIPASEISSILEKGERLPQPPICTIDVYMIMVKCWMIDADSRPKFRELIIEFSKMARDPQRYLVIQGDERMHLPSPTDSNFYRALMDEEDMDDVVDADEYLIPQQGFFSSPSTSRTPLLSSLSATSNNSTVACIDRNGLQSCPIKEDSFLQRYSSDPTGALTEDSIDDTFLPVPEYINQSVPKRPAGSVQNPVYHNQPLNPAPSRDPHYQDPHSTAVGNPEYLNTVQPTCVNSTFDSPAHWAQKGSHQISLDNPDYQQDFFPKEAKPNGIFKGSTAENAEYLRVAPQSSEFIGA
human EGFR L858R (NIH/3T3 cells), sequence (P00533 25-1210 L858R): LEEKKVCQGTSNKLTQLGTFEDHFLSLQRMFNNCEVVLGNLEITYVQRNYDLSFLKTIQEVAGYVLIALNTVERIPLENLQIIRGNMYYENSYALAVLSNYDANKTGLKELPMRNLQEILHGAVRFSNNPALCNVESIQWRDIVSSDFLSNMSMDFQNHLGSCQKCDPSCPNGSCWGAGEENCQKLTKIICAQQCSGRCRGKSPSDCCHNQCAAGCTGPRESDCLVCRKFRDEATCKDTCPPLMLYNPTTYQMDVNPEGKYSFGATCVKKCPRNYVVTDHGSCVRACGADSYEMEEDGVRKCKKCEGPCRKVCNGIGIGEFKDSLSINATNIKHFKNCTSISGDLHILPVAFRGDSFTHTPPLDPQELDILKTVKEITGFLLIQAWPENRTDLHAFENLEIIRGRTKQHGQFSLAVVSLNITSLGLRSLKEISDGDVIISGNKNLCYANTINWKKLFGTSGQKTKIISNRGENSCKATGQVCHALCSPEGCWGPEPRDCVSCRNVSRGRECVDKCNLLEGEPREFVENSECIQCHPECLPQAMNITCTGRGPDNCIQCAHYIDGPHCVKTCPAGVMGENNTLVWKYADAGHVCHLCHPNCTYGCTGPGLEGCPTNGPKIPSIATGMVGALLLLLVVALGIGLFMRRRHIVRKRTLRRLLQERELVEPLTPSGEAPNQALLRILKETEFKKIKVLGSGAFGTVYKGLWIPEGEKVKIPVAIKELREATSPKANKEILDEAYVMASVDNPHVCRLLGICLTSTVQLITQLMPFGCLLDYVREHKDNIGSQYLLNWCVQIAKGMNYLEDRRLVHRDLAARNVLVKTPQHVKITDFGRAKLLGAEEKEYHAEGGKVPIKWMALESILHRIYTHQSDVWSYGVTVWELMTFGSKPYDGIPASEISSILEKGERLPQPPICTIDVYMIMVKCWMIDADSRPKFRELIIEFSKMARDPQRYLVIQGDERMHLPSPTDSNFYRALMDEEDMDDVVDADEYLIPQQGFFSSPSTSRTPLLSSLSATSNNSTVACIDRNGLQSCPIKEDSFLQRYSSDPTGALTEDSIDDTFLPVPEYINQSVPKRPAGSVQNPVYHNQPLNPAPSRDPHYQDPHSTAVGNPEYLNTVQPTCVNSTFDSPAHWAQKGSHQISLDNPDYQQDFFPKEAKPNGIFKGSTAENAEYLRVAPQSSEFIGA
human EGFR L858R/T790M (NIH/3T3 cells), sequence (P00533 25-1210 T790M/L858R): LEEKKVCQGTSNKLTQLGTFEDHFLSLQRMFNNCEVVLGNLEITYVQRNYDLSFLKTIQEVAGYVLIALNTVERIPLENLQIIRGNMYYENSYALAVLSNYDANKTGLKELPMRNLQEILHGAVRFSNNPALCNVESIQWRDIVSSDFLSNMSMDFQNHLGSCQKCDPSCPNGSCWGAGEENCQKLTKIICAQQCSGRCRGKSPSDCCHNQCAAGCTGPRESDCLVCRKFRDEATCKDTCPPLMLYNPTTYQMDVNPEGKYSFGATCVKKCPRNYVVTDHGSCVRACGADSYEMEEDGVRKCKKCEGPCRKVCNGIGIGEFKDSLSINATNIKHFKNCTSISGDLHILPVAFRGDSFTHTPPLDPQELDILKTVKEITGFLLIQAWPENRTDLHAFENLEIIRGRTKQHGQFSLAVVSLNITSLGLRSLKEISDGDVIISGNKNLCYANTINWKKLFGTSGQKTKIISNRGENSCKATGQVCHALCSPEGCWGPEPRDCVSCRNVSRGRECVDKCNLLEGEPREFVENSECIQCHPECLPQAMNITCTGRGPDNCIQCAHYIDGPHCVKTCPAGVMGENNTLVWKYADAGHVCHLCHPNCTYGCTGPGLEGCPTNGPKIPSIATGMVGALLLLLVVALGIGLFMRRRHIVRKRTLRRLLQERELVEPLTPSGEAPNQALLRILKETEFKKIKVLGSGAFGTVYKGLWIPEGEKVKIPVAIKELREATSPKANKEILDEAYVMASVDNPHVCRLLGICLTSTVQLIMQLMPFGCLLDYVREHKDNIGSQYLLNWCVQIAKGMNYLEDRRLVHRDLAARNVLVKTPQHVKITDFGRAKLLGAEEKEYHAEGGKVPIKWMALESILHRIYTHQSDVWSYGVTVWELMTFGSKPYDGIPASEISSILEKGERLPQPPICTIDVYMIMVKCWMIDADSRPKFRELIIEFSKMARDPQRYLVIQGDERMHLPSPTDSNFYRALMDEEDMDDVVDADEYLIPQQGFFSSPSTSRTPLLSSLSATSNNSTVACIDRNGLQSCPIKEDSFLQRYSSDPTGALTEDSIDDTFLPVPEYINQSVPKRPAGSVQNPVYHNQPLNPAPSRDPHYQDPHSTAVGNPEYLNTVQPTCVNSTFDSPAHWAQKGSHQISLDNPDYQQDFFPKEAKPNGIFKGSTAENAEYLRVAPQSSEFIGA
T1 sequence (P00533 669-1210 T790M/L858R): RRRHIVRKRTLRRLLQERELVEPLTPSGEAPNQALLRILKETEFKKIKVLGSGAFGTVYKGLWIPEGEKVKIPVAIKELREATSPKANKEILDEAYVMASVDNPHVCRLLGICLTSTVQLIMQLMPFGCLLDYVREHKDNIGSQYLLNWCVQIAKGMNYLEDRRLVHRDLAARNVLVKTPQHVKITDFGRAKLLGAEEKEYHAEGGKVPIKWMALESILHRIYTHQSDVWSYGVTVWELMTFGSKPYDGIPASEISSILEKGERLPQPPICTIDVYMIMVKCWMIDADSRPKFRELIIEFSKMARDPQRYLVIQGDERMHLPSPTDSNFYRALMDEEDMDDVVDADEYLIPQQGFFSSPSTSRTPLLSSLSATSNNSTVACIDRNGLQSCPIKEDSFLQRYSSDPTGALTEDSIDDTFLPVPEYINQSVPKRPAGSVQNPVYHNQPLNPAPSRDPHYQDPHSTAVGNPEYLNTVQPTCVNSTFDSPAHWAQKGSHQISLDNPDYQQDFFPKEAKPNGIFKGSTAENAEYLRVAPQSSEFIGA

Regarding `C=CC(=O)N1CCC[C@@H](n2c(NC(=O)c3cccc(C(F)(F)F)c3)nc3cc(C(=O)O)ccc32)C1` [Example 18, (R)-1-(1-acryloylpiperidin-3-yl)-2-(3-(trifluoromethyl)benzamido)-1H-benzo[d]imidazole-5-carboxylic acid], the IC50 is 0.041 µM in test [1] (setting [5]); 2.59 µM in test [1] (setting [6]); more than 10 µM in test [2]; more than 10 µM in test [3]; 6.3 µM in test [4].
Consider `C=C(CN1CCCCC1)C(=O)N1CCCC[C@@H](n2c(NC(=O)c3ccnnc3)nc3cccc(C)c32)C1` [Example 17-90], for which the IC50 in test [1] (setting [5]) was 0.013 µM; in test [1] (setting [6]), 0.199 µM; in test [2], 0.76 µM; in test [3], 0.054 µM; in test [4] it was 0.055 µM.
The matching figures for `Cc1ncc(C(=O)Nc2nc3cccc(C)c3n2C2CCCCN(C(=O)/C=C/CN(C)C)C2)s1` (centres unmarked) [Example 17-64]: 0.001 µM, 0.02 µM, 0.021 µM, 0.002 µM and 0.005 µM.
In the case of `C=CC(=O)N1CCCC(n2c(NC(=O)c3cccc(C(F)(F)F)c3)nc3cnccc32)C1` (centres unmarked) [Example 17-8], the IC50 in test [1] (setting [5]) was 0.137 µM; in test [1] (setting [6]) it was 7 µM; in test [2], more than 10 µM; in test [3] it was 5.5 µM; in test [4], 0.37 µM.
`Cc1cccc2nc(NC(=O)c3ccnnc3)n([C@@H]3CCCCN(C(=O)C4=COCCO4)C3)c12` [Example 17-89]: the IC50 in test [1] (setting [5]) was determined as 2.32 µM; in test [1] (setting [6]) it was 1.01 µM; in test [2], 0.7 µM; in test [3], 0.46 µM; in test [4] it was 7.5 µM.
The matching figures for `CC1=C(C(=O)N2CCCC[C@@H](n3c(NC(=O)c4ccnnc4)nc4cccc(C)c43)C2)S(=O)(=O)CCO1` [Example 17-88]: 0.04 µM, 0.39 µM, 8.4 µM, 0.158 µM and 0.209 µM.
For `C=C(CN(CC)CC)C(=O)N1CCCC[C@@H](n2c(NC(=O)c3ccnnc3)nc3cccc(C)c32)C1` [Example 17-92], the IC50 in test [1] (setting [5]) was 0.012 µM; in test [1] (setting [6]), 0.213 µM; in test [2], 1.83 µM; in test [3] it was 0.043 µM; in test [4], 0.057 µM.
The matching figures for `C=CC(=O)N1CCOCC(n2c(NC(=O)c3cccc(C(F)(F)F)c3)nc3cccc(C)c32)C1` (centres unmarked) [Example 17-14]: 0.005 µM, 0.033 µM, 1.08 µM, 0.016 µM and 0.003 µM.
As for `C=CC(=O)N1CCCCC(n2c(NC(=O)c3ccccc3)nc3cccc(-c4nc(C)no4)c32)C1` (centres unmarked) [Example 17-138], the IC50 in test [1] (setting [5]) is 0.009 µM; in test [1] (setting [6]), 0.147 µM; in test [2], more than 10 µM; in test [3] it was 0.45 µM; in test [4] it was 0.067 µM.
The matching figures for `Cc1cc(C(=O)Nc2nc3cccc(C)c3n2C2CCCCN(C(=O)/C=C/CN(C)C)C2)oc1C` (centres unmarked) [Example 17-59]: 0.006 µM, 0.105 µM, 0.37 µM, 0.02 µM and 0.019 µM.
The matching figures for `C=CC(=O)N1CCCC(n2c(NC(=O)c3cccc(C(F)(F)F)c3)nc3c2CCN(S(C)(=O)=O)C3)C1` (centres unmarked) [Example 17-168]: 0.095 µM, 1.11 µM, more than 2.77 µM, 0.6 µM and 0.072 µM.
The matching figures for `C=CC(=O)N1CCOCC(n2c(NC(=O)c3ccccc3)nc3cccc(-c4nc(C)no4)c32)C1` (centres unmarked) [Example 17-141]: 0.01 µM, 0.247 µM, 7.8 µM, 0.68 µM and 0.097 µM.
In the case of `C=CC(=O)N1CCCC(n2c(NC(=O)c3cccc(C(F)(F)F)c3)nc3c2CCN(C(=O)OC)C3)C1` (centres unmarked) [Example 17-167], the IC50 in test [1] (setting [5]) was 0.128 µM; in test [1] (setting [6]) it was 2.62 µM; in test [2] it was more than 10 µM; in test [3], 4.8 µM; in test [4] it was 0.14 µM.
For `Cc1cccc2nc(NC(=O)c3cccnc3)n(C3CCCCN(C(=O)/C=C/CN(C)C)C3)c12` (centres unmarked) [Example 17-23], the IC50 in test [1] (setting [5]) was less than 0.001 µM; in test [1] (setting [6]), 0.003 µM; in test [2], 0.149 µM; in test [3] it was 0.004 µM; in test [4], 0.003 µM.
`C=CC(=O)N1CCOCC(n2c(NC(=O)c3cccc(C(F)(F)F)c3)nc3cccc(C)c32)C1` (single isomer, unassigned) [Example 21-7B]: the IC50 was less than 0.001 µM in test [1] (setting [5]); 0.008 µM in test [1] (setting [6]); 0.65 µM in test [2]; 0.012 µM in test [3]; 0.002 µM in test [4].
The matching figures for `Cc1ncc(C(=O)Nc2nc3cccc(C)c3n2C2CCCCN(C(=O)/C=C/CN(C)C)C2)s1` (single isomer, unassigned) [Example 21-8A]: 0.033 µM, 0.62 µM, 0.98 µM, 0.211 µM and 0.138 µM.
The matching figures for `Cc1cccc2nc(NC(=O)c3cccc(F)c3)n(C3CCCCN(C(=O)/C=C/CN(C)C)C3)c12` (centres unmarked) [Example 17-21]: less than 0.001 µM, 0.005 µM, 0.32 µM, 0.007 µM and 0.004 µM.
The matching figures for `Cc1cccc2nc(NC(=O)c3cnco3)n(C3CCCCN(C(=O)/C=C/CN(C)C)C3)c12` (centres unmarked) [Example 17-5]: 0.001 µM, 0.022 µM, 0.172 µM, 0.008 µM and 0.011 µM.
As for `C=CC(=O)N1CCCCC(n2c(NC(=O)c3ccccc3)nc3cccc(C(=O)N4C[C@@H](O)[C@H](O)C4)c32)C1` (some centres unmarked) [Example 17-140], the IC50 in test [1] (setting [5]) was 0.043 µM; in test [1] (setting [6]), 0.94 µM; in test [2], 7.9 µM; in test [3], 1.64 µM; in test [4], 0.181 µM.
The matching figures for `C=CC(=O)N1CCCCC(n2c(NC(=O)c3ccccc3)nc3cccc(C(=O)NCCS(C)(=O)=O)c32)C1` (centres unmarked) [Example 17-139]: 0.005 µM, 0.147 µM, more than 9.1 µM, 0.305 µM and 0.043 µM.
The matching figures for `Cc1cccc2nc(NC(=O)c3ccn(C)c(=O)c3)n(C3CCCCN(C(=O)/C=C/CN(C)C)C3)c12` (centres unmarked) [Example 17-49]: 0.001 µM, 0.029 µM, 0.33 µM, 0.006 µM and 0.027 µM.
On to `C=CC(=O)N1CCCC[C@@H](n2c(NC(=O)c3ccccc3)nc3cc(CN(C)CCS(C)(=O)=O)cc(C)c32)C1` [Example 17-127], for which the IC50 was less than 0.001 µM in test [1] (setting [5]); 0.002 µM in test [1] (setting [6]); 0.099 µM in test [2]; 0.004 µM in test [3]; 0.001 µM in test [4].
Take `Cc1cccc2nc(NC(=O)c3ccc4nccn4c3)n(C3CCCCN(C(=O)/C=C/CN(C)C)C3)c12` (centres unmarked) [Example 17-55]: the IC50 is less than 0.001 µM in test [1] (setting [5]); 0.007 µM in test [1] (setting [6]); 0.022 µM in test [2]; 0.002 µM in test [3]; 0.003 µM in test [4].
As for `Cc1cccc2nc(NC(=O)c3cccc(Cl)c3)n(C3CCCCN(C(=O)/C=C/CN(C)C)C3)c12` (centres unmarked) [Example 17-43], the IC50 in test [1] (setting [5]) was less than 0.001 µM; in test [1] (setting [6]), 0.006 µM; in test [2] it was 0.48 µM; in test [3] it was 0.014 µM; in test [4], 0.004 µM.
The matching figures for `C=CC(=O)N1CCCC[C@@H](n2c(NC(=O)c3ccccc3)nc3cccc(COCCOC)c32)C1` [Example 17-130]: 0.006 µM, 0.119 µM, 1.41 µM, 0.094 µM and 0.016 µM.
The matching figures for `C=CC(=O)N1CCCC[C@@H](n2c(NC(=O)c3ccccc3)nc3cccc(CO)c32)C1` [Example 17-131]: less than 0.001 µM, 0.005 µM, 0.311 µM, 0.01 µM and 0.002 µM.
The matching figures for `Cc1cccc2nc(NC(=O)c3ccnc(Cl)c3)n([C@@H]3CCCCN(C(=O)/C=C/CN(C)C)C3)c12` [Example 17-73]: less than 0.001 µM, less than 0.001 µM, 0.016 µM, 0.001 µM and less than 0.001 µM.
On to `C=CC(=O)N1CCCCC(n2c(NC(=O)c3cccc(C(F)(F)F)c3)nc3cccc(C(=O)O)c32)C1` (centres unmarked) [Example 20, 1-(1-acryloylazepan-3-yl)-2-(3-(trifluoromethyl)benzamido)-1H-benzo[d]imidazole-7-carboxylic acid], for which the IC50 in test [1] (setting [5]) is 0.005 µM; in test [1] (setting [6]), 0.11 µM; in test [2], more than 10 µM; in test [3] it was 3.3 µM; in test [4] it was 0.82 µM.
